For experiment [1], the system named is ULK kinase substrate ATG13 (pS318-ATG13) in A549 (KRAS mutant) cells. Briefly: pATG13 levels of mutant KRas A549 cells after treatment with ULK inhibitors in combination with trametinib (ELISA). The experiment is classed as cell-based, human. As for the experimental part:
Cellular Inhibition of ULK Kinase Substrate ATG13 Protein pATG13 Levels of Mutant KRas A549 Cells after Treatment with ULK Inhibitors in Combination with Trametinib
A549 (KRAS mutant) human lung cancer cells (6,000 cells/well) were added to a 384-well tissue-culture treated plate in 50 μL of pre-warmed DMEM medium supplemented with 10% characterized fetal bovine serum (Invitrogen, Carlsbad, CA), 100 units/mL penicillin G, and 100 μg/mL streptomycin and allowed to grow overnight at 37° C., 5% CO2, and 95% humidity. The following day, 10 μL of media containing trametinib or DMSO as a control was added to wells. The final concentration of trametinib in wells was 250 nM. A dose response of a test compound (0.6 μL per well) was added. DMSO (0.6 μL) was added to control wells. The plate was briefly shaken to mix wells and then incubated at 37° C. overnight. The next day, the media was aspirated and cells were washed with Dulbecco's Phosphate Buffered Saline (Gibco). Cells were lysed using MPER lysis buffer (Pierce, Rockford, IL) containing Halt Phosphatase and Protease Inhibitors (Pierce, Rockford, IL) and Phosphatase inhibitor cocktail 2 (Sigma, St. Louis, MO) at 4° C. for 10 min with shaking.
Cellular levels of phospho-Serine 318 ATG13 (pATG13) were measured via an ELISA method. Total ATG13 Antibody (Cell Signaling Cat #13273) was used to coat the wells. The plate was incubated at 4° C. overnight and washed with ELISA wash buffer (Biolegend Cat #421601). The wells were then blocked with assay diluent (Biolegend Cat #421203) for 1 h at rt. Plate wells were washed with ELISA wash buffer. Cell lysate was added to wells and incubated at rt for 2 h. Plate wells were washed with ELISA wash buffer. Biotinylated pS318-ATG13 antibody (Rockland Immunochemicals Cat #600-401-C49) was diluted in assay diluent and added to each well and incubated at rt for 1 h. Plate wells were washed with ELISA wash buffer. Streptavidin linked to horseradish peroxidase (Thermo Fisher Cat #21140) was diluted in assay diluent and added to each well and incubated at rt for 1 h. Plate wells were washed with ELISA wash buffer. High sensitivity TMB substrate (Biolegend Cat #421101) was added to each well and incubated at rt for 20 min. The reaction was stopped with 2N Sulfuric Acid. The plate was analyzed at on a plate reader measuring absorbance at 450 nm and 540 nm (background). Signal was calculated by first subtracting the background absorbance at 540 nm from the absorbance at 450 nm for each well. Next, the background corrected absorbance at 450 nm from blank wells was subtracted from test wells. Data was compared to control wells to determine % ATG13 phosphorylation. GraphPad Prism was used to calculate IC50 values.

For a further experiment, the target named is T1, ULK2 kinase (Homo sapiens, UniProt Q8IYT8).
T1 construct: (residues 1-306 with N-terminal GST and His tag; ID NO: 2); purchased Signal Chem U02-11G
T1 sequence (Q8IYT8 with tags, fused parts or gaps): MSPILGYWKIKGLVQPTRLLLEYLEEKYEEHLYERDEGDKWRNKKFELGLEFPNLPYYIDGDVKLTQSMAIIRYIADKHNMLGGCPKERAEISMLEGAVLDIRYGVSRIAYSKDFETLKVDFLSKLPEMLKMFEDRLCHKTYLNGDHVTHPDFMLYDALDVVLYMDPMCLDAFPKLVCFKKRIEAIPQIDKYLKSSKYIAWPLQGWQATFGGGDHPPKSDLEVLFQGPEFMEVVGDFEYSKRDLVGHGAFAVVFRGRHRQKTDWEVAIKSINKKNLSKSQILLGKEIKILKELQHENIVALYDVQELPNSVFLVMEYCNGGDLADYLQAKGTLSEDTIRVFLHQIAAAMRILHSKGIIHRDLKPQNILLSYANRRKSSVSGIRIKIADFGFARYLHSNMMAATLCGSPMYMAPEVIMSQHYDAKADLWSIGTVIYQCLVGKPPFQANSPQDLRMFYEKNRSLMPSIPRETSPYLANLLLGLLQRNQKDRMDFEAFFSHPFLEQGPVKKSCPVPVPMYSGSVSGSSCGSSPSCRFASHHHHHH
As to the kind of experiment: Biochemical assay for ULK2 (coupled pyruvate kinase/lactate dehydrogenase assay). Particulars: 1 mM ATP, 1 nM ULK2; read-out: ULK2 (inhibition of biochemical activity), IC50. Here is the method:
Biochemical Assay for ULK2 (SEQ. ID NO: 2)
Activity of ULK2 kinase was determined spectroscopically using a coupled pyruvate kinase/lactate dehydrogenase assay that continuously monitors the ATP hydrolysis-dependent oxidation of NADH (e.g., Schindler et al. Science (2000) 289: 1938-1942). Assays were conducted in 384-well plates (100 μL final volume) using 1 nM ULK2 (Signal Chem U02-11G), 200 μM ULKtide, 1.5 units pyruvate kinase, 2.1 units lactate dehydrogenase, 1 mM phosphoenol pyruvate, 0.28 mM NADH and 1 mM ATP in assay buffer (100 mM Tris, pH 7.5, 15 mM MgCl2, 0.5 mM DTT, 0.1% octyl-glucoside, 0.002% (w/v) BSA, and 0.002% Triton X-100). Inhibition of ULK2 was measured by adding serial diluted test compound (final assay concentration of 1% DMSO). A decrease in absorption at 340 nm was monitored continuously for 6 h at 30° C. on a multi-mode microplate reader (BioTek). The reaction rate was calculated using the 2-3 h time frame. The reaction rate at each concentration of compound was converted to percent inhibition using controls (i.e., reaction with no test compound and reaction with a known inhibitor) and IC50 values were calculated by fitting a four-parameter sigmoidal curve to the data using Prism (GraphPad software).

A further experiment has as its target T2, LRRK2 kinase (Homo sapiens, UniProt Q5S007).
T2 construct: (residues 970-2528; ID NO; 3); purchased Thermo Fisher
Briefly: Biochemical assay for LRRK2 (coupled pyruvate kinase/lactate dehydrogenase assay). Particulars: 26.4 nM LRRK2, 1 mM ATP; read-out: LRRK2 (inhibition of LRRK2 kinase activity, IC50). Here is the method:
Biochemical Assay for LRRK2 (SEQ. ID NO. 3)
Activity of LRRK2 kinase was determined spectroscopically using a coupled pyruvate kinase/lactate dehydrogenase assay that continuously monitors the ATP hydrolysis-dependent oxidation of NADH (e.g., Schindler et al. Science (2000) 289: 1938-1942). Assays were conducted in 384-well plates (100 μL final volume) using 26.4 nM LRRK2 (Thermo Fisher), 0.1 mM peptide substrate (RLGRDKYKTLRQIRQ), 1.5 units pyruvate kinase, 2.1 units lactate dehydrogenase, 1 mM phosphoenol pyruvate, 0.28 mM NADH and 1 mM ATP in assay buffer (100 mM Tris, pH 7.5, 15 mM MgCl2, 0.5 mM DTT, 0.004% (w/v) BSA, and 0.004% Triton X-100). Inhibition of LRRK2 was measured by adding serial diluted test compound (final assay concentration of 1% DMSO). A decrease in absorption at 340 nm was monitored continuously for 6 h at 30° C. on a multi-mode microplate reader (BioTek). The reaction rate was calculated using the 2-3 h time frame. The reaction rate at each concentration of compound was converted to percent inhibition using controls (i.e., reaction with no test compound and reaction with a known inhibitor) and IC50 values were calculated using software routines in Prism (GraphPad software).

A further experiment addresses T3, ULK1 kinase (Homo sapiens, UniProt O75385, E37A/K38A).
T3 construct: (residues 1-283; ID NO: 1); purchased Beryllium
T3 sequence (O75385 1-283 E37A/K38A): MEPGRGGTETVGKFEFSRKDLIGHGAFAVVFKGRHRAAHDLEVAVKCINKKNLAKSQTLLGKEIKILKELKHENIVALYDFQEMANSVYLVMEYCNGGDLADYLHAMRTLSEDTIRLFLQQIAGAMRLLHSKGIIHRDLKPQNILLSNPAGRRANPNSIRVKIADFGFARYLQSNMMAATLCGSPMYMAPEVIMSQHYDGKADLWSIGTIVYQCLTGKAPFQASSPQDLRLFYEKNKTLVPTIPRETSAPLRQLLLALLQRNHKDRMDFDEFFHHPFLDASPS
As to the kind of experiment: Biochemical assay for ULK1 (coupled pyruvate kinase/lactate dehydrogenase assay). Particulars: 1 mM ATP, 0.1 nM ULK1; read-out: ULK1 (inhibition of biochemical activity), IC50. The method, boiled down:
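IC50 values were fitted to percent inhibition, normalised with no-compound and known-inhibitor controls, using rates from 2–3 h of a 6 h read at 30 °C. ADP was coupled through pyruvate kinase/lactate dehydrogenase to NADH loss at 340 nm.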

For one compound, IC50 results are on record in patent US20240150368A1, “ULK INHIBITORS AND METHODS OF USE THEREOF” (Deciphera Pharmaceuticals, LLC, priority 2022, published 2024).

The structures appear in SMILES notation.

T2 sequence (Q5S007 with tags, fused parts or gaps): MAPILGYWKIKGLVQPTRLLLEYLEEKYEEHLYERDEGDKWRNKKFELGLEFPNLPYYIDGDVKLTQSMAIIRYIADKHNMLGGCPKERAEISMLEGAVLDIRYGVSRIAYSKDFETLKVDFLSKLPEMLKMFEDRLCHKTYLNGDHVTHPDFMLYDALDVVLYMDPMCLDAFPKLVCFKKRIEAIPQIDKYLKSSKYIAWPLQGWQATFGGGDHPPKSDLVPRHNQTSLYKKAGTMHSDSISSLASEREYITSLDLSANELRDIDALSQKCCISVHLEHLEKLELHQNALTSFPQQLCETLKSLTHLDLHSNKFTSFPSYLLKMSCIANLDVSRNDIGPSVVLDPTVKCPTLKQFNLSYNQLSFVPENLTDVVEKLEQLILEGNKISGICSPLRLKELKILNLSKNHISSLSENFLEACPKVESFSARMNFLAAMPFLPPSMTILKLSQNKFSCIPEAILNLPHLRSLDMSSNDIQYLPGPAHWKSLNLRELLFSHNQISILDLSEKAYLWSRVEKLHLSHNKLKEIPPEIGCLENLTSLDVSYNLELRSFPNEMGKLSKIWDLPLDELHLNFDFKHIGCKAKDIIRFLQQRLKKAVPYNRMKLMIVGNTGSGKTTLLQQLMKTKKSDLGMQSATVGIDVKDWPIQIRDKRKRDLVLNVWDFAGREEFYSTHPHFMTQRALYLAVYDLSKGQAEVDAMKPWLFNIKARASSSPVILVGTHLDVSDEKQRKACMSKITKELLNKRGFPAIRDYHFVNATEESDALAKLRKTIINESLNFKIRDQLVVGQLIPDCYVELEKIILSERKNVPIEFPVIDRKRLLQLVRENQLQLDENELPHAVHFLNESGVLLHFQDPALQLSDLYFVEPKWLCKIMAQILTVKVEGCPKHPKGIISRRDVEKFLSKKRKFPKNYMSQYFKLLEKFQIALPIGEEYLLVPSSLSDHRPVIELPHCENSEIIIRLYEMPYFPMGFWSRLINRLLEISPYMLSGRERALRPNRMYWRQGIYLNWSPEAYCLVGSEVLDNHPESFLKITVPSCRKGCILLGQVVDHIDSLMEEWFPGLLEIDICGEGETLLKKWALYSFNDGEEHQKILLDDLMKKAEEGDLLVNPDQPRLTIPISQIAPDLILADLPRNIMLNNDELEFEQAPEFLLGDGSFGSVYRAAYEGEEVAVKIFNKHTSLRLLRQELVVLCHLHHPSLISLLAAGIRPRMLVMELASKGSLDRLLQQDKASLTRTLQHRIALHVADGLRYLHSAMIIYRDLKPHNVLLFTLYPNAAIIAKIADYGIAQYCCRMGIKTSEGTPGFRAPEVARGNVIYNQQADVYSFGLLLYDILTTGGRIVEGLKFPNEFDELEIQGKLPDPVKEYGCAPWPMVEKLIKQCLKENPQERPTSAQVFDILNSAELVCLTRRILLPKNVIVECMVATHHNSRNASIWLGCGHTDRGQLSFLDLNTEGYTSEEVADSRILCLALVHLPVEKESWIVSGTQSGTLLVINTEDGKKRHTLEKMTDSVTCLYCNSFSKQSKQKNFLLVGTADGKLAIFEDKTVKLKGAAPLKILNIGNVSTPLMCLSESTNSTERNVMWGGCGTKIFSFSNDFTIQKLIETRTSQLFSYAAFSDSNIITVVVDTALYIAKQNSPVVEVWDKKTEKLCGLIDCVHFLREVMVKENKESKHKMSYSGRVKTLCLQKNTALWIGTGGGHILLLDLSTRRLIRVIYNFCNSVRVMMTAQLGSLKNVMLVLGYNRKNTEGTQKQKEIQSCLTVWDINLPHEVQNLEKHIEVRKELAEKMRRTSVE

As for `CC/C(Nc1cnn(C(C)C)c1)=C1/C(=O)Nc2ccc(C(C)=O)cc21` [Example 177], the half-maximal inhibitory concentration (IC50) in experiment [1] was more than 600 nM; at ULK2 kinase, 100 to 500 nM; on LRRK2 kinase, not above 100 nM; on ULK1 kinase, 100 to 500 nM.
